Here are results for 3 compounds from article PMC10803289, “Transport and inhibition mechanism of the human SGLT2–MAP17 glucose transporter” (Nature Structural & Molecular Biology, 2023).

The structures appear in SMILES notation. Several values for one entry are separate records, joined by “and”; a condition that tells them apart may be missing. Equal entries are not always repeated.

The target in one data set is T1, WT hSGLT2 (Homo sapiens, UniProt P31639).
T1 construct: expressed in transfected cells; host or cells: HEK293 cells (ECACC 85120602)
T1 sequence (P31639 1-672): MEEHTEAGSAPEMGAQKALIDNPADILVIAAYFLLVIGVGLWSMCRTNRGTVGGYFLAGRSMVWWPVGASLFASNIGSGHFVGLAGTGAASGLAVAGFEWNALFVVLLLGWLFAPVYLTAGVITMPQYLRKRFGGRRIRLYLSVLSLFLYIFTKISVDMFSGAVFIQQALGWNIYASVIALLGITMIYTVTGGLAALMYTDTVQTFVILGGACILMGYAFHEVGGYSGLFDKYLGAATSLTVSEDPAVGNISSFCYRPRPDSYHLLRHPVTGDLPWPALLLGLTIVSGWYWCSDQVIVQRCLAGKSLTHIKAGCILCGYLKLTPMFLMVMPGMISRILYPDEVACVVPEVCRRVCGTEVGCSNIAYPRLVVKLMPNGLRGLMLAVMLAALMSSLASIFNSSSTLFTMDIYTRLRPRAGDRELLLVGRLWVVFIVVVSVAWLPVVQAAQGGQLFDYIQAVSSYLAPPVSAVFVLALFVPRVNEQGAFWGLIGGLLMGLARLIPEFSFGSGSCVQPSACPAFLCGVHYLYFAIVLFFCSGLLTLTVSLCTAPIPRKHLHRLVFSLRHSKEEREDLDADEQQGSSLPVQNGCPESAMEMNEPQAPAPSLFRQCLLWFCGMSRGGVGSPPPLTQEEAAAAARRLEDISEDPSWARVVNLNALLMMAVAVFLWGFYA
T1 sequence (Q13113 1-114 partner): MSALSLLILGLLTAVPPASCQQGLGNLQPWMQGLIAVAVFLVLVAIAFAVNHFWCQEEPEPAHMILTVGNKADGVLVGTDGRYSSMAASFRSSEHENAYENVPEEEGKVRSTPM
Nature of the data set: α-MG uptake in hSGLT2-transfected HEK293 cells, WT. It counts as cell-based. As to the method:
HEK293 cells (ECACC 85120602) were maintained in Dulbecco’s modified Eagle medium (Gibco) supplemented with 10% fetal bovine serum (Thermo Scientific), 2 mM L-glutamine, 100 U ml^−1 benzylpenicillin and 100 µg ml^−1 streptomycin at 37 °C in a humidified atmosphere (5% CO2 in air). HEK293 cells were seeded at 1.0 × 10^5 cells per well in poly-L-lysine coated 24-well plates. The cells in each well were transiently transfected with 0.25 µg hMAP17 plasmid and 0.50 µg hSGLT2 plasmid using Lipofectamine 2000 (Life Technologies) and cultured for 48 h. […] After preincubation, uptake was initiated by replacing the preincubation buffer with extracellular fluid buffer containing 500 μM α-MG in the absence or presence of inhibitors. Uptake was completed by removing the uptake buffer and washing with ice-cold buffer three times, followed by solubilization in 1 N NaOH at room temperature.
Cell lysates were deproteinized by adding acetonitrile containing candesartan as the internal standard. The α-MG concentration was quantified via liquid chromatography–tandem mass spectrometry (LC–MS/MS) using the internal standard method.
Cellular protein content was determined using a bicinchoninic acid protein assay kit (Thermo Fisher Scientific). The uptake of α-MG was expressed as the ratio of concentration in the cells (in pmol per mg protein) to concentration in the medium (in pmol μl^−1); this is known as the cell-to-medium ratio (in μl per mg protein).
In the inhibition study, the cell-to-medium ratio of cells transfected with the empty vector was used as the background. The specific α-MG uptake was calculated by subtracting this background from the total cell-to-medium ratio and normalized to the uptake achieved without the inhibitor. IC50 was calculated via nonlinear regression using GraphPad Prism 8.4.3.
(§1) The concentrations of the extract solution from the filter plate and of the cell lysate were quantified using a tandem mass spectrometry QTRAP6500 System (SCIEX) coupled with an ACQUITY UPLC system (Waters) using the internal standard method. Mobile phases A and B used 10 mM of ammonium bicarbonate and acetonitrile, respectively.

The subject of data set [1] is nontransfected Expi293 cells (Mock). Nature of the data set: Nonspecific binding to crude membrane of nontransfected cells (Mock). Also noted: species or system human. The settings on record: 30 nM canagliflozin; Mock membrane. How it is done:
To examine the inhibition of binding to the crude membrane, mammalian Expi293 cells were co-transfected with the hMAP17 and hSGLT2 plasmids, as described. The cells were collected and disrupted by sonication in a hypotonic buffer (50 mM HEPES–NaOH (pH 7.5), 10 mM KCl and protease inhibitor cocktail) or Na^+-free hypotonic buffer (50 mM Tris–HCl (pH 7.5), 10 mM KCl and protease inhibitor cocktail). The cell debris were removed by centrifugation (2,000g, 5 min, 4 °C). The membrane fraction was collected by ultracentrifugation (112,000g, 30 min, 4 °C) and stored at −80 °C before use. The crude membrane (250 μg per sample) was incubated with SGLT2 inhibitor in an assay buffer (100 mM NaCl and 10 mM HEPES/Tris, pH 7.4) or Na^+-free assay buffer (100 mM choline chloride and 10 mM HEPES/Tris, pH 7.4) at room temperature for 2 h. Reactions were terminated by filtration through a GF/C filter plate (Corning) presoaked in assay buffer containing 0.1% bovine serum albumin. The sample in the filter plate was washed three times with the assay buffer and eluted with acetonitrile: water (80:20, v/v). The extract solution from the filter plate was diluted with water containing candesartan as an internal standard, and the SGLT2 inhibitor concentration was quantified via LC–MS/MS.
Nonspecific binding was measured using the crude membrane of nontransfected Expi293 cells. Specific binding was calculated by subtracting nonspecific binding from the binding of hSGLT2-expressing cells. Specific binding was normalized to hSGLT2 protein expression levels, measured via FSEC. The equilibrium dissociation constant (Kd) and maximum number of binding sites (Bmax) were calculated via nonlinear regression in GraphPad Prism 8.4.3. The specific binding of the hSGLT2 mutants was normalized to the Bmax of WT hSGLT2.
as §1

A further data set addresses T2, hSGLT2 S74A (Homo sapiens, UniProt P31639, S74A).
T2 construct: expressed in transfected cells; host or cells: Expi293 cells, crude membrane fraction
In kind it is binding. The settings on record: S74A. The source says:
hSGLT2 complementary DNA and human MAP17 cDNA were synthesized and codon-optimized for expression in human cell lines. Both cDNAs were cloned into the pcDNA3.4 vector. The hSGLT2 sequence was fused with an N-terminal signal sequence from human trypsinogen 1, a His10 tag, and sfGFP, followed by a human rhinovirus 3C protease (HRV3C protease) recognition site. Point mutations were introduced into this construct using site-directed mutagenesis. These plasmids were utilized for all experimental procedures conducted in this study.
To examine the inhibition of binding to the crude membrane, mammalian Expi293 cells were co-transfected with the hMAP17 and hSGLT2 plasmids, as described. The cells were collected and disrupted by sonication in a hypotonic buffer (50 mM HEPES–NaOH (pH 7.5), 10 mM KCl and protease inhibitor cocktail) or Na^+-free hypotonic buffer (50 mM Tris–HCl (pH 7.5), 10 mM KCl and protease inhibitor cocktail). The cell debris were removed by centrifugation (2,000g, 5 min, 4 °C). The membrane fraction was collected by ultracentrifugation (112,000g, 30 min, 4 °C) and stored at −80 °C before use. […] The extract solution from the filter plate was diluted with water containing candesartan as an internal standard, and the SGLT2 inhibitor concentration was quantified via LC–MS/MS.
Nonspecific binding was measured using the crude membrane of nontransfected Expi293 cells. Specific binding was calculated by subtracting nonspecific binding from the binding of hSGLT2-expressing cells. Specific binding was normalized to hSGLT2 protein expression levels, measured via FSEC. The equilibrium dissociation constant (Kd) and maximum number of binding sites (Bmax) were calculated via nonlinear regression in GraphPad Prism 8.4.3. […]
The concentrations of the extract solution from the filter plate and of the cell lysate were quantified using a tandem mass spectrometry QTRAP6500 System (SCIEX) coupled with an ACQUITY UPLC system (Waters) using the internal standard method. […]

For data set [2], the system named is β-glucosidase in the intestine. Also noted: method as in PMID 21358697. The settings on record: O-glucoside hydrolyzed by β-glucosidase in the intestine; cited from earlier work.

T2 sequence (P31639 whole entry S74A, one chain of several): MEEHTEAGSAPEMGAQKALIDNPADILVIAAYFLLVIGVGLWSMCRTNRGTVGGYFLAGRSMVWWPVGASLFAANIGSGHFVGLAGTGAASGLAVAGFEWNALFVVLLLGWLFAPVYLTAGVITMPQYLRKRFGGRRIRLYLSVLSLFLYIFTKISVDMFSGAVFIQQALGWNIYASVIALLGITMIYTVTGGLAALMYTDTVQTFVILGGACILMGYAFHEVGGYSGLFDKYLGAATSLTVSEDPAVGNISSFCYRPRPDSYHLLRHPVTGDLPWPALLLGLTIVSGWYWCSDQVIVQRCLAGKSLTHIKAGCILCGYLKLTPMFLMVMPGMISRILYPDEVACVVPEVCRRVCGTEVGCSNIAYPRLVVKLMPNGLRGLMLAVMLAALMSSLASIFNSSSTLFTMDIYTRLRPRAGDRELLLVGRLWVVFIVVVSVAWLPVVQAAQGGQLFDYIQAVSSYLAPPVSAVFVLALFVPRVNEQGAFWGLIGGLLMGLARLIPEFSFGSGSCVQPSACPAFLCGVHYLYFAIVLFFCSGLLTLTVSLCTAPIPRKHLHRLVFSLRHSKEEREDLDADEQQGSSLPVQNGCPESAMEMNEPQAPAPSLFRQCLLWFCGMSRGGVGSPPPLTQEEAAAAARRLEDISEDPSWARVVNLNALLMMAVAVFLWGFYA

With `CO[C@H]1O[C@H](CO)[C@@H](O)[C@H](O)[C@H]1O` [α-MG, α-methyl-D-glucopyranoside], the α-MG uptake on WT hSGLT2 (Control (no inhibitor), hSGLT2 cells) is 23.4464 μL/mg-protein and 18.7820 μL/mg-protein and 14.3913 μL/mg-protein and 26.3540 μL/mg-protein; on WT hSGLT2 (Fig. 3h, WT) it was 101.43 μL/mg-protein and 101.01 μL/mg-protein and 97.56 μL/mg-protein; at WT hSGLT2 (time course, 500 μM α-MG, 15 min, hSGLT2), 4.1190 μL/mg-protein and 4.1163 μL/mg-protein and 6.4519 μL/mg-protein; on WT hSGLT2 (time course, 500 μM α-MG, 30 min, hSGLT2), 12.1536 μL/mg-protein and 10.6771 μL/mg-protein and 14.5344 μL/mg-protein.

For `Cc1ccc([C@@H]2O[C@H](CO)[C@@H](O)[C@H](O)[C@H]2O)cc1Cc1ccc(-c2ccc(F)cc2)s1` [Canagliflozin], the “Canagliflozin binding (% of hSGLT2)” value in data set [1] was 2.562 % of hSGLT2 and 2.489 % of hSGLT2 and 1.993 % of hSGLT2. In addition, the “Canagliflozin binding (% of WT)” value on hSGLT2 S74A (30 nM canagliflozin, replicates) was 75.2559 % of WT and 78.5839 % of WT and 93.2268 % of WT.

Take `O=C(CCc1ccc(O)cc1)c1c(O)cc(O)cc1O[C@@H]1O[C@H](CO)[C@@H](O)[C@H](O)[C@H]1O` [Phlorizin]: the metabolic stability entry in data set [2] was “poor”. Also, the remaining activity at 0.0003 µM at WT hSGLT2 (HEK293, Phlorizin 0.3 nM, WT, read-out: α-MG uptake (% of control)) is 103%. On WT hSGLT2 (HEK293, Phlorizin 1 nM, WT, read-out: α-MG uptake (% of control)), the remaining activity at 0.001 µM is 101%. In addition, the remaining activity at 0.01 µM at WT hSGLT2 (HEK293, Phlorizin 10 nM, WT, read-out: α-MG uptake (% of control)) was found to be 81.9%. Further, the remaining activity at 0.03 µM at WT hSGLT2 (HEK293, Phlorizin 30 nM, WT, read-out: α-MG uptake (% of control)) stood at 53.8%. The remaining activity at 0.1 µM on WT hSGLT2 (HEK293, Phlorizin 100 nM, WT, read-out: α-MG uptake (% of control)) turned out to be 36.9%. Further, on WT hSGLT2 (HEK293, Phlorizin 300 nM, WT, read-out: α-MG uptake (% of control)), the remaining activity at 0.3 µM is 18.1%. Also, the “α-MG uptake (% of control)” value on WT hSGLT2 (Phlorizin 0.3 nM, WT) is 107.5 % of control and 105.5 % of control; at WT hSGLT2 (Phlorizin 1 nM, WT) it was 114.0 % of control and 107.4 % of control; on WT hSGLT2 (Phlorizin 3 nM, WT), 83.9 % of control and 115.8 % of control and 121.5 % of control; on WT hSGLT2 (Phlorizin 10 nM, WT) it was 71.6 % of control and 84.5 % of control; at WT hSGLT2 (Phlorizin 30 nM, WT), 70.4 % of control and 72.9 % of control; on WT hSGLT2 (Phlorizin 100 nM, WT) it was 38.1 % of control and 34.4 % of control. In addition, the “α-MG uptake (% of control)” value on WT hSGLT2 (Phlorizin 300 nM, WT) is 15.6 % of control and 11.8 % of control. Moreover, the Bmax1 on hSGLT2 S74A (phlorizin, mean ± SEM n=3) was 1.16 ± 0.07 pmol/mg-protein.
